Results as given in ChEMBL document CHEMBL2034913, “A variant peptide of buffalo colostrum β-lactoglobulin inhibits angiotensin I-converting enzyme activity” (Eur J Med Chem, 2012).
pIC50: −log10 of the molar value. Peptide text beside a SMILES is read from it.

Assays:
[1] = molecular target: T1, Angiotensin-converting enzyme (Rattus norvegicus) (UniProt P47820); assay: (§1) Inhibition of ACE from rat kidney using hippuryl-histidyl-leucine as substrate after 30 mins by UV/VIS spectrophotometry
T1 sequence (whole entry): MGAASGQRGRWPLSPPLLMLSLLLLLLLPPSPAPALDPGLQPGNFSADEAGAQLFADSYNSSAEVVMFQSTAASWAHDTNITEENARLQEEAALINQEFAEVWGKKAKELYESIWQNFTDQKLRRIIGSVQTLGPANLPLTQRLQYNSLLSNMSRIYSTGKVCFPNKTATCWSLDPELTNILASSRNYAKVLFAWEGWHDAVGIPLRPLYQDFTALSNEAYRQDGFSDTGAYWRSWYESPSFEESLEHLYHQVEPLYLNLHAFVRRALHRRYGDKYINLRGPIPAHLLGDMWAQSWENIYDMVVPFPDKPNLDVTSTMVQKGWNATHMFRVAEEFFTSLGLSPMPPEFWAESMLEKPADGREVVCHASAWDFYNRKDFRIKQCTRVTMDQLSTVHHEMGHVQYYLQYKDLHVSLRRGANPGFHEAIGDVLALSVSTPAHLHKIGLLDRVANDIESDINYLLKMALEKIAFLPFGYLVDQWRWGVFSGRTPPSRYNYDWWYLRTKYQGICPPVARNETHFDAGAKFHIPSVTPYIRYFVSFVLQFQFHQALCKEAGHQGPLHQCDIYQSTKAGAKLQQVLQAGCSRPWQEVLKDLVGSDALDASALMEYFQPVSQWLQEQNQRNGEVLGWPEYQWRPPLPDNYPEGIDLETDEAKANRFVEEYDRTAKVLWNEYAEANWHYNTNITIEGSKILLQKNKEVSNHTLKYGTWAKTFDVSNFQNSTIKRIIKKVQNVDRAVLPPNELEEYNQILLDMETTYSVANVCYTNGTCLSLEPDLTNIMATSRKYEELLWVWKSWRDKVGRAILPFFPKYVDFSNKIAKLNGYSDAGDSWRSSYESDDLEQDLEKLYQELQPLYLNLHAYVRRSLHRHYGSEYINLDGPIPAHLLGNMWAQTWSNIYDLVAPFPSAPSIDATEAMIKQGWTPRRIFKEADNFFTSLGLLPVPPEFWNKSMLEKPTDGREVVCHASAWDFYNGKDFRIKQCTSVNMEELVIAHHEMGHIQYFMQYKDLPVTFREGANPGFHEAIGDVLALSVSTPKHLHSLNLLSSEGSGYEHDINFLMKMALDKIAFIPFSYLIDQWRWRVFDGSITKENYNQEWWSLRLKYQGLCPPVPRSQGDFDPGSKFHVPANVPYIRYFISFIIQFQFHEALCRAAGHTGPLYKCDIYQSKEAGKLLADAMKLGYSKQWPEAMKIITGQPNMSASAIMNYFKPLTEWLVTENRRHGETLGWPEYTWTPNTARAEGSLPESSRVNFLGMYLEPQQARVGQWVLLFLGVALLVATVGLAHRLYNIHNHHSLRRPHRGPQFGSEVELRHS

[2] = molecular target: T2, Angiotensin-converting enzyme (Rattus norvegicus, UniProt P47820); assay: as §1
T2 sequence (P47820 whole entry): T1 sequence (whole entry)

inhibition [1]: Dose-dependent effect
pIC50 [2]: 3.30
Compound: CC[C@H](C)[C@H](N)C(=O)N[C@H](C(=O)N[C@@H](C)C(=O)N[C@@H](CCSC)C(=O)N[C@@H](CCCCN)C(=O)O)[C@@H](C)CC (H-IIAMK-OH)
